Activity and inhibition data for five compounds are collected here from ChEMBL document CHEMBL5316366, “Immunomodulatory Effects of New Phenanthrene Derivatives from Dendrobium crumenatum” (J Nat Prod, 2023).

The test system of data set [1] is PBMC. The data set can be described thus: Immunomodulatory activity in PMA/ionomycin-induced human PBMC assessed as reduction in frequency of IFN-gamma expressing CD3+ activated T cells at 1 to 20 uM incubated for 4 hrs by flow cytometry. The format is functional, cell-based. The following applies: dose 1-20 µM. A general note: Flow cytometry measures light scatter and fluorescence of single cells or particles in a stream.

Data set [2] relates to PBMC. In words: Immunomodulatory activity in PMA/ionomycin-induced human PBMC assessed as reduction in frequency of IL-2 expressing CD3+ T cells at 1 to 20 uM incubated for 4 hrs by flow cytometry. Conditions: dose 1-20 µM. It counts as functional, cell-based.
Data set [3] relates to PBMC. The data set can be described thus: Immunomodulatory activity in PMA/ionomycin-induced human PBMC assessed as reduction in frequency of TNF-alpha expressing CD14+ inflammatory monocytes at 1 to 20 uM incubated for 4 hrs by flow cytomtery. The format is functional, cell-based. The following applies: dose 1-20 µM.
For data set [4], the system named is PBMC. The data set can be described thus: Cytotoxicity against human PBMC assessed as early apoptotic cells at 1 to 20 uM incubated for 4 hrs by Annexin V-FITC/7-AAD staining based flow cytometric analysis. The format is toxicity, cell-based. The following applies: dose 1-20 µM.
The test system of data set [5] is PBMC. In words: Cytotoxicity against human PBMC assessed as late apoptotic cells at 1 to 20 uM incubated for 4 hrs by Annexin V-FITC/7-AAD staining based flow cytometric analysis. The format is toxicity, cell-based. The following applies: dose 1-20 µM.
Data set [6] concerns PBMC. In words: Immunomodulatory activity in human PBMC derived from multiple sclerosis patient assessed as reduction in IL-2 expressing CD3+ T cells at 10 uM incubated for 4 hrs by flow cytometry. It counts as functional, cell-based.
Data set [7] has as its system PBMC. The data set can be described thus: Immunomodulatory activity in human PBMC derived from multiple sclerosis patient assessed as reduction in IFN-gamma expressing CD3+ T cells at 10 uM incubated for 4 hrs by flow cytometry. It counts as functional, cell-based.
Data set [8] relates to PBMC. In words: Immunomodulatory activity in human PBMC derived from multiple sclerosis patient assessed as reduction in TNF-alpha expressing CD3+ T cells at 10 uM incubated for 4 hrs by flow cytometry. The format is functional, cell-based.
The test system of data set [9] is PBMC. In words: Inhibition of Ca2+ influx in human PBMC derived from multiple sclerosis patient assessed as reduction in Ca2+ influx rate in CD4+ T cells at 10 uM incubated for 4 hrs by Fluo-4 AM staining based flow cytometry method. The format is functional, cell-based.
Data set [10] has as its system PBMC. The data set can be described thus: Inhibition of Ca2+ influx in human PBMC derived from multiple sclerosis patient assessed as reduction in Ca2+ influx rate in CD8+ T cells at 10 uM incubated for 4 hrs by Fluo-4 AM staining based flow cytometry method. The format is functional, cell-based.
Data set [11] has as its system PBMC. The data set can be described thus: Immunomodulatory activity in PMA/ionomycin-induced human PBMC derived from multiple sclerosis patient assessed as decrease in frequency of CD161+ CD3+T-bet+CD4-CD8-CD14- double negative T cells by CyTOF assay. It counts as functional, cell-based.
Data set [12] has as its system PBMC. In words: Immunomodulatory activity in PMA/ionomycin-induced human PBMC derived from multiple sclerosis patient assessed as increase in frequency of CTLA4+CRTH2+ CD8+ T cells by CyTOF assay. The format is functional, cell-based.
Data set [13] deals with PBMC. In words: Immunomodulatory activity in multiple sclerosis patient derived PBMC derived from multiple sclerosis patient assessed as increase in frequency of CTLA4+CRTH2+ CD8+ T cells by CyTOF assay. The format is functional, cell-based. Conditions: Homo sapiens.
Data set [14] deals with PBMC. In words: Immunomodulatory activity in PMA/ionomycin-induced human PBMC derived from multiple sclerosis patient assessed as reduction in frequency of reactive ICOS+ CD4+ T cells by CyTOF assay. The format is functional, cell-based.
For data set [15], the system named is PBMC. In words: Immunomodulatory activity in multiple sclerosis patient derived PBMC derived from multiple sclerosis patient assessed as reduction in frequency of reactive ICOS+ CD4+ T cells by CyTOF assay. The format is functional, cell-based. The following applies: Homo sapiens.
Data set [16] relates to PBMC. The data set can be described thus: Inhibition of Ca2+ influx in human PBMC derived from multiple sclerosis patient assessed as decrease in Ca2+ influx rate in CD4+ T cells at 1 uM incubated for 4 hrs by Fluo-4 AM staining based flow cytometry method. It counts as functional, cell-based.
Data set [17] relates to PBMC. In words: Inhibition of Ca2+ influx in human PBMC derived from multiple sclerosis patient assessed as decrease in Ca2+ influx rate in CD8+ T cells at 1 uM incubated for 4 hrs by Fluo-4 AM staining based flow cytometry method. It counts as functional, cell-based.

Active and inactive are the calls of the source. No cut-off for these calls is given here.

In the case of `COC1=CC(=O)c2c(ccc3c(OC)c(O)ccc23)[C@@]12Oc1cc(OC)cc3ccc4c(c13)C2=CC(=O)C4=O`, the outcome in the data set on PBMC [1], with PBMC [2], in the data set on PBMC [3], in the data set with PBMC [6], with PBMC [7] and in the data set with PBMC [8] was Active. Moreover, the outcome with PBMC [11], in the data set on PBMC [12], in the data set with PBMC [13], in the data set on PBMC [14] and with PBMC [15] was Active. For the same compound, the Activity entry with PBMC [4] and in the data set with PBMC [5] was “Non-Toxic” each time. The inhibition entry with PBMC [9] and in the data set with PBMC [10] was “inactive” in each case.
For the compound `Cc1cccc(F)c1C(=O)Nc1cnc(-c2cc3c(cc2Cl)OC(F)(F)O3)cn1`, the inhibition result in the data set with PBMC [16] and in the data set with PBMC [17] was “Active” each time.
As for `COC1=CC(=O)c2c(ccc3c(OC)c(O)ccc23)C1=O`, the outcome in the data set with PBMC [2] was Active.
As to `COc1cc2ccc3c(OC)c(O)ccc3c2c(OC)c1O`, in the data set on PBMC [2], the outcome was Active.
`COc1cc2c(c(OC)c1O)-c1ccc(O)c(O)c1CC2`: the outcome in the data set with PBMC [2], in the data set on PBMC [6], in the data set on PBMC [7] and with PBMC [8] was Active. Besides, the Activity result in the data set on PBMC [4] and in the data set on PBMC [5] was “Non-Toxic” in each case. The inhibition entry in the data set with PBMC [9] and in the data set on PBMC [10] was “inactive” throughout.
